US4593097A, “Phenazine carboxylic acid derivatives and a process for production thereof” (Kyowa Hakko Kogyo Co., Ltd., priority 1983, dated 1986)
Values after ≈ are worked out from the molar mass of the structure shown.

Key:
[1] = test system: Klebsiella pneumoniae ATCC 10031; assay: Antibacterial activity by agar dilution method (pH 7.0), Klebsiella pneumoniae ATCC 10031; assay type: cell-based; conditions: ATCC10031, read-out: Minimum Inhibitory Concentration
From the text: (§1) Antibacterial activities of DC-86-Y, -M, -R and -C against various bacteria determined by agar dilution method (pH 7.0) are shown in Table 2.

[2] = test system: Sarcoma 180 ascites tumor cells; assay: Anti-tumor activity against Sarcoma 180 in mice; assay type: in vivo, ddy male mice; conditions: 24 h after transplantation, measured 7 days after transplantation
Experimental: 5×10^6 Sarcoma 180 ascites tumor cells were transplanted to the hypoderm of the armpit cavity of ddy male mice weighing about 20 g, one group being 6 mice. 24 hours after the transplantation, 0.2 ml of a phosphate buffer saline (PBS) solution of a test compound having various concentrations was intraperitoneally administered once. The composition of PBS is 0.8 g/dl NaCl, 0.02 g/dl KCl, […] Na2 HPO4 and 0.02 g/dl KH2 PO4 (pH 7.2). For comparison, 0.2 ml of PBS containing mitomycin C was intraperitoneally administered 24 hours after the transplantation of the tumor cells. Average tumor volume (mm^3) and T/C (T: average tumor volume of mice treated with the test compound, C: average tumor volume of mice treated with 0.2 ml of PBS intraperitoneally)were measured 7 days after the transplantation and the results shown in Table 3 were obtained.

[3] = test system: Shigella sonnei ATCC 9290; assay: Antibacterial activity by agar dilution method (pH 7.0), Shigella sonnei ATCC 9290; assay type: cell-based; conditions: ATCC9290, read-out: Minimum Inhibitory Concentration
From the text: as §1

[4] = test system: Salmonella typhosa ATCC 9992; assay: Antibacterial activity by agar dilution method (pH 7.0), Salmonella typhosa ATCC 9992; assay type: cell-based; conditions: Salmonella enterica, pH 7, read-out: Minimum Inhibitory Concentration
From the text: as §1

[5] = test system: Bacillus subtilis No. 10707; assay: Antibacterial activity by agar dilution method (pH 7.0), Bacillus subtilis No. 10707; assay type: cell-based; conditions: read-out: Minimum Inhibitory Concentration
From the text: as §1

[6] = test system: Staphylococcus aureus ATCC 6538P; assay: Antibacterial activity by agar dilution method (pH 7.0), Staphylococcus aureus ATCC 6538P; assay type: cell-based; conditions: ATCC6538P, read-out: Minimum Inhibitory Concentration
From the text: as §1

Escherichia coli ATCC 26 = assay: Antibacterial activity by agar dilution method (pH 7.0), Escherichia coli ATCC 26; assay type: cell-based; conditions: ATCC26, read-out: Minimum Inhibitory Concentration
From the text: as §1

in vivo = conditions: mouse, ip

Row | SMILES | MIC [1] [µg/mL] | T/C (average tumor volume, treated/control) ([2]; 12.5 mg/kg i.p. once) | T/C (average tumor volume, treated/control) ([2]; 25 mg/kg i.p. once) | T/C (average tumor volume, treated/control) ([2]; 50 mg/kg i.p. once) | MIC [3] [µg/mL] | MIC [4] [µg/mL] | MIC [5] [µg/mL] | MIC [6] [µg/mL] | MIC (Escherichia coli ATCC 26) [µg/mL] | LD50 (in vivo) [mg/kg] | T/C (average tumor volume, treated/control) ([2]; 5 mg/kg i.p. once) | T/C (average tumor volume, treated/control) ([2]; 10 mg/kg i.p. once) | T/C (average tumor volume, treated/control) ([2]; 20 mg/kg i.p. once) | T/C (average tumor volume, treated/control) ([2]; 100 mg/kg i.p. once) | T/C (average tumor volume, treated/control) ([2]; 200 mg/kg i.p. once) | T/C (average tumor volume, treated/control) ([2]; 6 mg/kg i.p.)
1 | CC(OC(=O)CCl)c1cccc2nc3c(C(=O)O)cccc3nc12 (centres unmarked) [DC-86-C] | > 100 | 0.98 | 0.72 | dead | 10 (≈ 29 µM) | 10 (≈ 29 µM) | 0.01 (≈ 0.029 µM) | 0.2 (≈ 0.58 µM) | > 100 | 40 | – | – | – | – | – | –
2 | CC(OC(=O)CO)c1cccc2nc3c(C(=O)O)cccc3nc12 (centres unmarked) [DC-86-M] | 100 (≈ 306 µM) | – | – | – | 10 (≈ 30.6 µM) | 10 (≈ 30.6 µM) | 0.1 (≈ 0.306 µM) | 0.3 (≈ 0.919 µM) | 100 (≈ 306 µM) | 20 | 0.97 | 0.82 | 0.36 | – | – | –
3 | CC(OC(=O)COC(C)(C)C)c1cccc2nc3c(C(=O)O)cccc3nc12 (centres unmarked) [DC-86-R] | > 100 | – | – | 1.06 | > 100 | > 100 | 0.7 (≈ 1.83 µM) | 3 (≈ 7.84 µM) | > 100 | 250 | – | – | – | 0.87 | 0.86 | –
4 | CC(O)c1cccc2nc3c(C(=O)O)cccc3nc12 (centres unmarked) [DC-86-Y, metal not drawn] | > 100 | – | – | – | > 100 | > 100 | > 100 | > 100 | > 100 | 300 | – | – | – | – | – | –
5 | CO[C@@]12[C@H](COC(N)=O)C3=C(C(=O)C(C)=C(N)C3=O)N1C[C@@H]1N[C@@H]12 [Mitomycin C, mitomycin C, reference compound] | – | – | – | – | – | – | – | – | – | – | – | – | – | – | – | 0.28
